According to patent publication US10281463B2, “Methods of determining cellular phenotypes” (Technion Research & Development Foundation Limited, priority 2015, dated 2019):

Legend:
E. coli [1] = assay: Antibiotic susceptibility testing of E. coli growth on photonic microarrays diffraction grating (relative EOT shift over time); format: cell-based; conditions: for Cross comparison of antibiotic effect at the same concentration (type of effect): 5 μg/mL of respective antibiotic, E. coli, FIG. 17; for MIC: Escherichia coli, E. coli proliferation on photonic microarrays diffraction grating, antibiotic introduced at time 0 at increasing concentrations, read-out: MIC (minimal inhibitory concentration) observed from EOT growth curves
Description: A SiPA placed in a flow-device having an inlet and an outlet. […] Fluid containing bacteria is introduced through the inlet. Light reflected from the top and bottom of the pores is collected by the optical setup. The phase delay between the incident and the reflected light beams is proportional to the depth (L) of the pores, and the refractive index of the medium filling the pores. The presence of bacterial cells in the pores increase the refractive index of the pores. Thus, the phase delay of the reflected light in the presence of the bacteria differs from the phase delay of the reflected light in the absence of the bacteria, so that analysis of the light collected by the optical setup can provide indication regarding the phenotype of the cells.
The FFT provides the value (2 nL), where L is the average depth of the pores and n is their refractive index. This quantity is also referred to as the Effective Optical Thickness (EOT). The measured shift in the EOT value is a function of the change in the refraction index of the pole: ΔEOT/EOT0=2(Δn/n0)L, where n0 is the refractive index of the pores before the introduction of the bacteria into the pores, Δn is the change in the refractive index as a result of the introduction of the cells into the compartments, and EOT0 is the EOT before introducing the cells into the compartments. Δn is thus correlated with the pore's volume fraction occupied by bacteria cells.
Types of optical kinetic profiles made by bacterial cells on photonic microarrays diffraction grating (e.g., SiPA) include, without limitation, • 1. Bacteria cells are seeded into the pores/structures. Full growth media is supplied to the cells until a growth curve is established. • a. An anti-proliferation drug (bacteriostatic/antibiotics) is added to the media (see FIG. 7) and the correlation of EOT growth curve and drug concentration is analyzed. The MIC (minimal inhibitory concentration) is determined when the EOT shift becomes null. • b. If the drug is later remove from the media (see FIG. 8), the cell growth may resume, if the drug effect is reversible. • c. If the drug is bactericidal or its bacteriostatic effect is irreversible, then the EOT curve will retract as dead cells disintegrate and exit the pores (see FIG. 8). • d. If the growth media if deficient with critical nutrient or factor, then EOT growth curve will decline in relation to the deficiency (see FIG. 9). • 2. Bacteria suspension is introduced to the photonic microarrays diffraction grating under constant flow conditions, in salt buffer solution. • a. If the suspension contains an anti-attachment drug/factor that will affect pore/structure colonization, then correlation of EOT curve and drug concentration can be analyzed (see FIG. 10). • b. Once a stable EOT curve is established, the bacteria suspension is replaced with clean buffer to challenge the bacteria adhesion. If cells are rinsed out of the pores, EOT plot will retract (see FIG. 11).

E. coli [2] = assay: E. coli colonization of SiPA as a function of surface functionality (rate of EOT shift); format: cell-based; conditions: FIG. 12A
Description: The method includes the continuous or rapid serial monitoring of the light interferometry spectra obtained from a surface with reflective periodic topography (PRT), prior, during and following the controlled introduction of bacterial suspensions to it and/or addition of drugs/substances. Said interferometry spectra is analyzed (for example by fast Fourier transform) to reveal the rate of optical shift, e.g., the time-dependent alterations in the reflected light properties of said PRT, inflicted by the behavior of the cells (for example settling, adhering, migrating or proliferating).
Types of optical kinetic profiles made by bacterial cells on photonic microarrays diffraction grating (e.g., SiPA) include, without limitation, • 1. Bacteria cells are seeded into the pores/structures. Full growth media is supplied to the cells until a growth curve is established. • a. An anti-proliferation drug (bacteriostatic/antibiotics) is added to the media (see FIG. 7) and the correlation of EOT growth curve and drug concentration is analyzed. The MIC (minimal inhibitory concentration) is determined when the EOT shift becomes null. • b. […] If the suspension contains an anti-attachment drug/factor that will affect pore/structure colonization, then correlation of EOT curve and drug concentration can be analyzed (see FIG. 10). • b. […]

Row | Compound | Cross comparison of antibiotic effect at the same concentration (type of effect) (E. coli [1]) | MIC (E. coli [1]) [µg/mL] | Improvement of E. Coli colonization over neat SiO2 or albumin (E. coli [2]; SiPA coated with WGA) [times] | Effect of WGA ligand in the suspension on WGA-improved colonization (E. coli [2]; NAG incorporated in the E. coli suspension, WGA-coated SiPA)
1 | O=C(O)c1cn(C2CC2)c2cc(N3CCNCC3)c(F)cc2c1=O [Ciprofloxacin] | bacteriostatic | 0.005 to 0.05 | – | –
2 | COc1cc(Cc2cnc(N)nc2N)cc(OC)c1OC [Trimethoprim] | below the MIC concentration | 5 to 50 | – | –
3 | Wheat-germ agglutinin [WGA] | – | – | 5 | –
4 | CO/N=C(\C(=O)N[C@@H]1C(=O)N2C(C(=O)O)=C(CSc3nc(=O)c(=O)[nH]n3C)CS[C@H]12)c1csc(N)n1 [Ceftriaxone Sodium] | bactericidal | 0.005 to 0.05 | – | –
5 | CC(=O)N[C@@H]1[C@@H](O)[C@H](O)[C@@H](CO)O[C@@H]1O [NAG] | – | – | – | completely eliminate this effect
